These results are taken from patent publication US20240199964A1, “COMPOUNDS FOR MARKING LIQUIDS” (KUANTAG NANOTEKNOLOJILER GELISTIRME VE URETIM A.S., priority 2022, published 2024).

What all share (assay type): physicochemical
A short description of series [1]: absorbance spectroscopy of marker in xylene solution. Particulars: for Ab. max. (estimated): not experimental, estimated based on the values of formulas (II) and (III); for Ab. max.: xylene solution having 0.5 ppm marker material, experimental. From the text: (§1) Chemical structures of other examples of anthrapyridone marker compounds derived based on the general formula (I) may be seen below. […] Table 1 identifies side groups of each anthrapyridone compound based on the general formula (I) and their absorption and emission characteristics. In Table 1, only the absorbance maximum and emission maximum values for the anthrapyridone compound markers with formula (II) and formula (III) are experimental. In the spectroscopic measurements, each test sample includes a xylene solution having 0.5 ppm marker material. For emission measurements 543 and 551 nm excitation wavelength are used, respectively. The absorbance maximum and emission maximum values of the formulas (IV)-(X) are not experimental values. These values are estimated values based on the values of the formulas (II) and (III).

The nature of series [2]: fluorescence emission spectroscopy of marker in xylene solution. The settings on record: for Em. max. (estimated): not experimental, estimated based on the values of formulas (II) and (III); for Em. max.: xylene solution having 0.5 ppm marker material, excitation 543 nm for (II), 551 nm for (III), experimental.
From the text: as §1

The nature of series [3]: absorbance spectrum (UV-Vis) of marker in diesel fuel, FIG. 2A. Particulars: diesel solution, about 0.5 ppm marker material. From the text:
FIG. 2A is a graph of an absorbance spectrum 10A of the marker material (the anthrapyridone compound of formula (III)) in diesel fuel. The absorbance spectrum 10A includes two absorbance maximums 11A and 11B at about 520 nm and about 550 nm wavelength values of the visible radiation range, respectively. A diesel solution having about 0.5 ppm marker material concentration may be used as a test sample for this spectral analysis. The absorbance spectroscopy instrument may be any type of absorbance spectroscopy instrument that is able to take absorbance spectrum in visible radiation region, i.e., 400-600 nm.
The absorbance spectrum shown in FIG. 2A is taken by a UV-Vis Spectroscopy instrument from Thermo Scientific Co in a test range of about 400-650 nm. The fluorescence spectrum shown in FIG. 2B is taken by a fluorescence spectroscopy instrument from Edinburgh Co.

As to `CNc1ccc2c3c(cc(=O)n2C)-c2ccccc2C(=O)c13` [formula (V)], the “Ab. max. (estimated)” value in series [1] is listed as 540-560 nm. In addition, the “Em. max. (estimated)” value in series [2] is on record as 575-600 nm.

As for `CCCCCCCCCCCNc1ccc2c3c(cc(=O)n2C)-c2ccccc2C(=O)c13` [formula (IX)], the “Ab. max. (estimated)” value in series [1] was 540-560 nm. The “Em. max. (estimated)” value in series [2] is given as 575-600 nm.

`CCCCC(CC)CNc1ccc2c3c(cc(=O)n2C)-c2ccccc2C(=O)c13` (centres unmarked) [formula (VII)]: in series [1], the “Ab. max. (estimated)” value is reported as 540-560 nm. The “Em. max. (estimated)” value in series [2] is given as 575-600 nm.

Molecule `Cn1c(=O)cc2c3c(c(NC4CCCCC4)ccc31)C(=O)c1ccccc1-2` [formula (III), Solvent Red 149] displayed an Ab. max. in series [1] of 551 nm. For the same molecule, in series [3], the “absorbance maximum 11A” value was “about 520 nm” and the “absorbance maximum 11B” value was “about 550 nm”. In series [2], this molecule gave an Em. max. of 580 nm.

For the molecule `O=C1c2ccccc2-c2cc(=O)n(Cc3ccccc3)c3ccc(NCc4ccccc4)c1c23` [formula (X)], the “Ab. max. (estimated)” value in series [1] was 540-560 nm. The “Em. max. (estimated)” value in series [2] was 575-600 nm.

Take `CCCCC(CC)CNc1ccc2c3c(cc(=O)n2CC(CC)CCCC)-c2ccccc2C(=O)c13` (centres unmarked) [formula (VI)]: the “Ab. max. (estimated)” value in series [1] was 540-560 nm. Also, in series [2], the “Em. max. (estimated)” value is 575-600 nm.

`O=C1c2ccccc2-c2cc(=O)n(C3CCCCC3)c3ccc(NC4CCCCC4)c1c23` [formula (VIII)]: the “Ab. max. (estimated)” value in series [1] is listed as 540-560 nm. In addition, the “Em. max. (estimated)” value in series [2] was 575-600 nm.

For the molecule `Cn1c(=O)cc2c3c(c(NCc4ccccc4)ccc31)C(=O)c1ccccc1-2` [formula (IV), Solvent Red 150], the “Ab. max. (estimated)” value in series [1] was 540-560 nm. The “Em. max. (estimated)” value in series [2] was 575-600 nm.

`Cc1ccc(Nc2ccc3c4c(cc(=O)n3C)-c3ccccc3C(=O)c24)cc1` [formula (II), Solvent Red 52] showed an Ab. max. in series [1] of 543 nm. Moreover, the Em. max. result in series [2] was “no emission”.
